Measured values published in paper PMC10313921, “A living ex vivo platform for functional, personalized brain cancer diagnosis” (Cell Reports Medicine, 2023).

Assays:
[1] = system: MB231Br (breast cancer metastasis to brain); experiment: Drug screening of MB231Br tumor foci on OBSCs; format: cell-based, human
[2] = system: LN229 (established GBM line); experiment: Drug screening of LN229 tumor foci on OBSCs; format: cell-based, human
Method in brief: (§1)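 Scores integrate therapeutic windows between tumor kill and slice toxicity (at DSS thresholds, EC50 slopes, curve areas) plus tumor-behavior parameters, giving −100 to +100. Tumor viability came from bioluminescence three days after drug or radiation, normalized to day-one fluorescence.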

[3] = system: U373WT (wild-type established GBM line); experiment: Drug screening of U373WT tumor foci on OBSCs; format: cell-based, human; conditions: U373 WT on OBSCs
Method in brief: as §1

[4] = system: U373KO (RAD18 knockout of U373WT via CRISPR); experiment: Drug screening of U373KO tumor foci on OBSCs; format: cell-based, human; conditions: U373 KO on OBSCs
Method in brief: as §1

[5] = system: GBM8 (high-passage patient-derived GBM line); experiment: Drug screening of GBM8 tumor foci on OBSCs; format: cell-based, human
Method in brief: as §1

[6] = system: MS21 (low-passage patient-derived GBM line); experiment: Drug screening of MS21 tumor foci on OBSCs; format: cell-based, human
Method in brief: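 Bioluminescence viability readout, 3 d post-treatment, normalized to day-1 tumor fluorescence vs untreated; 6 drug concentrations or XRad, n = 4 foci per concentration. Drug sensitivity score sums weighted parameters comparing tumor kill with OBSC toxicity, ranging −100 to 100.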

[7] = system: PDIPG (low-passage pediatric patient-derived line); experiment: Drug screening of PDIPG tumor foci on OBSCs; format: cell-based, human
Method in brief: as §1

[8] = system: PIS patient tumor tissue (intracranial sarcoma); experiment: Drug screening of uncultured patient tumor tissue PIS on OBSCs; format: cell-based, human; conditions: Homo sapiens, PIS on OBSCs
Method in brief: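 Uncultured patient tumour tissue, transduced with mCherry-FLuc lentivirus, engrafted on organotypic brain slice cultures (OBSCs); six drug concentrations or X-ray dosing given one day after seeding, n = 4 foci per concentration. Bioluminescence with luciferin read three days post-treatment, normalised to day one and untreated controls; drug sensitivity score combines weighted therapeutic-window parameters versus OBSC toxicity (−100 to 100).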

[9] = system: PGBM patient tumor tissue (pediatric GBM); experiment: Drug screening of uncultured patient tumor tissue PGBM on OBSCs; format: cell-based, human
Experimental: (§2) Tumor cells were seeded onto OBSCs 2h after slicing as described above. One day after tumor seeding, six concentrations of each drug were diluted in the media underneath each culture insert, or XRad was applied using an X-Rad 320 Precision X-ray machine (n = 4 tumor foci per concentration; n ≥ 24 tumor foci per drug per cell line). Three days after treatment, the bioluminescence of live tumor cells was measured using an AMI optical imager (Spectral Instruments) and dose-response curves were generated. Tumor survival was normalized to day one tumor fluorescence and compared to an untreated control group.
(§3) To engraft onto OBSCs, the cryopreserved/thawed or fresh brain tumor tissue was filtered through a 100 μm cell strainer. Each 50 mg of tissue was transfected with 1mL mcherry-FLuc Lentivirus at 1.5e7 vg/ml with 1μL polybrene for 4h at 37°C. After incubation, the brain tumor tissue was washed with PBS three times to remove the residual virus and reconstituted in PBS with a final volume of 150 μL. Then the tissue solution was engrafted atop OBSCs at ∼0.5 mg tissue in 3 μL of PBS on each hemisphere of the slice. The OBSC engrafted with patient tumor tissue was incubated at 37°C with 5% CO2 and 95% humidity. The BSM was changed after 24h and subsequently every 3 days. Tumor treatment studies were executed as described above for tumor lines. The viability of the patient tissue was measured by an AMI optical imaging system with the addition of 1.5 mg/mL luciferin underneath the culture insert.
(§4) Several weighted parameters were factored into an overall drug sensitivity score.
(§5) For DSS parameters 1–6, therapeutic windows were calculated by comparing OBSC toxicity and tumor response at the doses where tumor kill passed through the DSS parameter (Table S1 and S3). For DSS parameter 7, the therapeutic window was calculated by comparing the slopes through the tumor EC50 and the OBSC tox EC50. For DSS parameter 8, the therapeutic window was calculated by comparing the areas under tumor kill and OBSC tox curves. Normalized therapeutic window ratios for DSS parameters 1–8 within each drug-tumor-OBSC interaction were calculated in the following manner: within each window, values ranged from +1 to −1, where values approaching +1 signify increasing tumor kill relative to normal tissue toxicity, and values approaching −1 indicate agents where tumors remained highly viable while toxicity to the normal OBSC tissue was elevated. DSS parameters 9–11 were determined based on the behavior of the tumor in response to the drug, as defined above.
(§6) All individually weighed parameters were added together to generate the DSS. Overall DSS from 0 to 100 signify increasing efficacy in tumor kill relative to OBSC toxicity, while scores from 0 to −100 describe scenarios in which tumors thrive more effectively than OBSCs for a given treatment. Dose-response values were calculated via linear interpolation of raw data, not from best-fit curve equations.

[10] = system: PGBM-R patient tumor tissue (recurrent tumor from same patient as PGBM); experiment: Drug screening of uncultured patient tumor tissue PGBM-R on OBSCs; format: cell-based, human
Experimental: as §2, §3, §4, §5, §6

[11] = system: MG-II patient tumor tissue (WHO grade II meningioma); experiment: Drug screening of uncultured patient tumor tissue MG-II on OBSCs; format: cell-based; conditions: Homo sapiens, dose required to kill 90% of the tumor
Experimental: as §2, §3, §4, §5, §6

[12] = area under the dose-response curve, trapezoidal rule
[13] = dose required to kill 10% of the tumor
[14] = dose required to kill 25% of the tumor
[15] = Homo sapiens, U373 MG, dose required to kill 50% of the tumor
[16] = Homo sapiens, U373 MG, dose required to kill 90% of the tumor
[17] = Homo sapiens, U373 MG, dosed day 1, survival via bioluminescence day 4, linear interpolation

CC(=O)Nc1cccc(-n2c(=O)n(C3CC3)c(=O)c3c(Nc4ccc(I)cc4F)n(C)c(=O)c(C)c32)c1 [Trametinib]
EC50 ([1]; Homo sapiens, MB231BR on OBSCs, dose required to kill 50% of the tumor): 0.784 µM
EC90 ([1]; Homo sapiens, MB231BR on OBSCs, dose required to kill 90% of the tumor): > 10 µM
IC50 ([1]; Homo sapiens, MB231Br on OBSCs, dosed day 1, survival via bioluminescence day 4, linear interpolation): 0.78 µM
Killing at highest dose ([1]; MB231BR on OBSCs): 7.00E-01 fraction of tumor population killed
AUC ([1]; MB231BR on OBSCs, area under the dose-response curve, trapezoidal rule): 3.32E+01
Slope ([1]; MB231BR on OBSCs, slope through the EC50): -2.78E-01
Killing at highest dose [2]: 5.60E-01 fraction of tumor population killed
EC50 ([2]; Homo sapiens, LN-229, dose required to kill 50% of the tumor): 18.6 µM
EC90 ([2]; Homo sapiens, LN-229, dose required to kill 90% of the tumor): > 10 µM
IC50 ([2]; Homo sapiens, LN-229, dosed day 1, survival via bioluminescence day 4, linear interpolation): 19 µM
AUC [2, 12]: 4.96E+01
EC10 [2, 13]: 0.668 µM
EC25 [2, 14]: 3.46 µM
Slope ([2]; slope through the EC50): -1.47E-02
EC50 [3, 15]: > 10 µM
EC90 [3, 16]: > 10 µM
IC50 [3, 17]: > 10 µM
Killing at highest dose [3]: 4.80E-01 fraction of tumor population killed
AUC [3, 12]: 5.40E+01
EC10 [3, 13]: 0.625 µM
EC25 [3, 14]: 2.16 µM
Slope ([3]; slope through the EC50): -2.50E-04
EC50 [4, 15]: > 10 µM
EC90 [4, 16]: > 10 µM
IC50 [4, 17]: > 10 µM
Killing at highest dose [4]: 3.10E-01 fraction of tumor population killed
AUC [4, 12]: 8.91E+01
EC10 [4, 13]: 45.8 µM
EC25 [4, 14]: 84.5 µM
Slope ([4]; slope through the EC50): -3.88E-03
Killing at highest dose ([5]; GBM8 on OBSCs): 9.80E-01 fraction of tumor population killed
AUC ([5]; GBM8 on OBSCs, area under the dose-response curve, trapezoidal rule): 4.78E+00
EC10 ([5]; GBM8 on OBSCs, dose required to kill 10% of the tumor): 0.0313 µM
EC25 ([5]; GBM8 on OBSCs, dose required to kill 25% of the tumor): 0.0781 µM
EC75 ([5]; GBM8 on OBSCs, dose required to kill 75% of the tumor): 0.779 µM
Slope ([5]; GBM8 on OBSCs, slope through the EC50): -6.33E-01
EC50 ([5]; Homo sapiens): 0.384 µM
EC90 ([5]; Homo sapiens): 1.67 µM
IC50 ([5]; Homo sapiens): 0.38 µM
EC50 ([6]; Homo sapiens): > 10 µM
EC90 ([6]; Homo sapiens): > 10 µM
IC50 ([6]; Homo sapiens): > 10 µM
Killing at highest dose ([6]; MS21 on OBSCs): -5.00E-02 fraction of tumor population killed
AUC ([6]; MS21 on OBSCs, area under the dose-response curve, trapezoidal rule): 1.26E+02
EC50 ([7]; Homo sapiens): > 10 µM
EC90 ([7]; Homo sapiens): > 10 µM
IC50 ([7]; Homo sapiens): > 10 µM
Killing at highest dose ([7]; PDIPG on OBSCs): 1.70E-01 fraction of tumor population killed
AUC ([7]; PDIPG on OBSCs, area under the dose-response curve, trapezoidal rule): 8.73E+01
EC10 ([7]; PDIPG on OBSCs, dose required to kill 10% of the tumor): 30 µM
Slope ([7]; PDIPG on OBSCs, slope through the EC50): -1.00E-03
EC50 ([8]; dose required to kill 50% of the tumor): > 100 µM
EC90 ([8]; dose required to kill 90% of the tumor): > 10 µM
EC50 ([9]; Homo sapiens, PGBM on OBSCs, dose required to kill 50% of the tumor): > 100 µM
EC90 ([9]; Homo sapiens, PGBM on OBSCs, dose required to kill 90% of the tumor): > 10 µM
Killing at highest dose ([9]; PGBM patient tissue on OBSCs, 72 h): about one-third
DSS (drug sensitivity score) ([9]; PGBM patient tissue, scale -100 to +100): 16
EC90 ([10]; Homo sapiens, PGBM-R on OBSCs, dose required to kill 90% of the tumor): > 10 µM
increase of DSS in the recurrent tumor ([10]; PGBM-R relative to PGBM): 58 points
EC90 [11]: > 10 µM
